Publication PMC8284461, “Piperidine-4-Carboxamides Target DNA Gyrase in Mycobacterium abscessus” (Antimicrobial Agents and Chemotherapy, 2021)
In brackets after ≈: the same amount, converted by molar mass.

Legend:
[1] = test system: M. abscessus subsp. bolletii M232; design: method as in PMID 19171799; settings: bolletii M232, erm(41) T28; cited from earlier work
[2] = test system: M. abscessus subsp. abscessus Bamboo; test: MIC, broth microdilution; assay type: cell-based, Mycobacterium abscessus; settings: abscessus Bamboo wild type, 90% growth inhibition, 3 days
Method: (§1) MIC was determined using the broth microdilution method in 96-well plates as described previously ([47]). Briefly, a 10-point 2-fold serial dilution of compounds was performed in 96-well plates (Costar 3370; Corning, USA) starting at twice the desired highest concentration. […] One hundred microliters of the bacterial suspension was seeded onto the 96-well plates containing 100 μl of the serially diluted compounds to give a final volume of 200 μl in each well with the final OD600 of 0.005. The plates were sealed with parafilm, placed onto wet paper towels in a lock-lock box and incubated for 3 days at 37°C with orbital shaking at 90 rpm. […] Absorbance values at day 3 were subtracted from the day 0 readout. Percent growth inhibition was calculated by dividing the absolute absorbance value of treated cells with untreated control and multiplying by 100. CLR was included in all MIC experiments as a positive control to monitor assay reproducibility. MIC was defined as 90% of growth inhibition relative to untreated controls.

[3] = test system: M. abscessus subsp. massiliense M111; test: MIC, broth microdilution; assay type: cell-based, Mycobacterium abscessus; settings: Mycobacteroides abscessus, 72 h, 90% growth inhibition, 3 days
Method: as §1

[4] = test system: M. abscessus subsp. bolletii M232; test: MIC, broth microdilution; assay type: cell-based, Mycobacterium abscessus; settings: Mycobacteroides abscessus, 72 h, 90% growth inhibition, 3 days
Method: as §1

[5] = test system: M. abscessus subsp. abscessus K21; test: MIC, broth microdilution; assay type: cell-based, Mycobacterium abscessus; settings: Mycobacteroides abscessus, 72 h, 90% growth inhibition, 3 days
Method: as §1

[6] = test system: M. abscessus subsp. abscessus M199; test: MIC, broth microdilution; assay type: cell-based, Mycobacterium abscessus; settings: Mycobacteroides abscessus, 72 h, 90% growth inhibition, 3 days
Method: as §1

[7] = test system: M. abscessus subsp. abscessus ATCC 19977; test: MIC, broth microdilution; assay type: cell-based, Mycobacterium abscessus; settings: abscessus ATCC 19977 wild type, 90% growth inhibition, 3 days
Method: as §1

[8] = test system: M. abscessus subsp. abscessus M404; test: MIC, broth microdilution; assay type: cell-based, Mycobacterium abscessus; settings: Mycobacteroides abscessus, 72 h, 90% growth inhibition, 3 days
Method: as §1

[9] = test system: M. abscessus subsp. abscessus M337; test: MIC, broth microdilution; assay type: cell-based, Mycobacterium abscessus; settings: Mycobacteroides abscessus, 72 h, 90% growth inhibition, 3 days
Method: as §1

[10] = test system: M. abscessus subsp. abscessus M421; test: MIC, broth microdilution; assay type: cell-based, Mycobacterium abscessus; settings: Mycobacteroides abscessus, 72 h, 90% growth inhibition, 3 days
Method: as §1

[11] = test system: M. abscessus subsp. bolletii M506; test: MIC, broth microdilution; assay type: cell-based, Mycobacterium abscessus; settings: Mycobacteroides abscessus, 72 h, 90% growth inhibition, 3 days
Method: as §1

[12] = test system: M. abscessus subsp. bolletii CCUG 50184T; test: MIC, broth microdilution; assay type: cell-based, Mycobacterium abscessus; settings: Mycobacteroides abscessus, 72 h, 90% growth inhibition, 3 days
Method: as §1

[13] = test system: M. abscessus subsp. massiliense CCUG 48898T; test: MIC, broth microdilution; assay type: cell-based, Mycobacterium abscessus; settings: Mycobacteroides abscessus, 72 h, 90% growth inhibition, 3 days
Method: as §1

[14] = test system: M. abscessus subsp. abscessus M9; test: MIC, broth microdilution; assay type: cell-based, Mycobacterium abscessus; settings: Mycobacteroides abscessus, 72 h, 90% growth inhibition, 3 days
Method: as §1

[15] = test system: M. abscessus subsp. abscessus Bamboo; design: method as in PMID 19171799; settings: erm(41) C28; cited from earlier work
[16] = test system: M. abscessus subsp. abscessus ATCC 19977 MXF^r-2 (GyrA D96N); test: MIC, resistant mutant; assay type: cell-based, Mycobacterium abscessus; settings: Mycobacteroides abscessus, ATCC19977
[17] = test system: M. abscessus subsp. bolletii M506; design: method as in PMID 19171799; settings: bolletii M506, erm(41) C28; cited from earlier work
[18] = test system: M. abscessus subsp. abscessus Bamboo 844^r-3 (GyrB S473W); test: MIC, resistant mutant; assay type: cell-based, Mycobacterium abscessus; settings: Mycobacteroides abscessus
[19] = test system: M. abscessus subsp. abscessus M337; design: method as in PMID 19171799; settings: abscessus M337, erm(41) T28; cited from earlier work
[20] = test system: M. abscessus subsp. abscessus Bamboo 844^r-2 (GyrA D91N); test: MIC, resistant mutant; assay type: cell-based, Mycobacterium abscessus; settings: Mycobacteroides abscessus
[21] = test system: M. abscessus subsp. massiliense CCUG 48898T; design: method as in PMID 19171799; settings: erm(41) deletion; cited from earlier work
[22] = test system: M. abscessus subsp. bolletii CCUG 50184T; design: method as in PMID 19171799; settings: erm(41) T28; cited from earlier work
[23] = test system: M. abscessus subsp. massiliense M111; design: method as in PMID 19171799; settings: massiliense M111, erm(41) deletion; cited from earlier work
[24] = test system: M. abscessus subsp. abscessus ATCC 19977; design: method as in PMID 19171799; settings: abscessus ATCC 19977, erm(41) T28; inducible resistance by sequevar; cited from earlier work
[25] = test system: M. abscessus subsp. abscessus ATCC 19977 844-TMF^r-4 (GyrB M474I); test: MIC, resistant mutant; assay type: cell-based, Mycobacterium abscessus; settings: Mycobacteroides abscessus, ATCC19977
[26] = test system: M. abscessus subsp. abscessus ATCC 19977 MXF^r-3 (GyrA D96G); test: MIC, resistant mutant; assay type: cell-based, Mycobacterium abscessus; settings: Mycobacteroides abscessus, ATCC19977
[27] = test system: M. abscessus subsp. abscessus K21; design: method as in PMID 19171799; settings: abscessus K21, erm(41) C28; cited from earlier work
[28] = test system: M. abscessus subsp. abscessus M9; design: method as in PMID 19171799; settings: abscessus M9, erm(41) T28; cited from earlier work
[29] = biological target: recombinant M. abscessus wild-type DNA gyrase (Mycobacteroides abscessus, UniProt B1ME45+B1ME58); test: biochemical; design: species or system Mycobacterium abscessus; settings: wild-type DNA gyrase, up to 50 μM
Chain of recombinant M. abscessus wild-type DNA gyrase (B1ME58 entry or part of it): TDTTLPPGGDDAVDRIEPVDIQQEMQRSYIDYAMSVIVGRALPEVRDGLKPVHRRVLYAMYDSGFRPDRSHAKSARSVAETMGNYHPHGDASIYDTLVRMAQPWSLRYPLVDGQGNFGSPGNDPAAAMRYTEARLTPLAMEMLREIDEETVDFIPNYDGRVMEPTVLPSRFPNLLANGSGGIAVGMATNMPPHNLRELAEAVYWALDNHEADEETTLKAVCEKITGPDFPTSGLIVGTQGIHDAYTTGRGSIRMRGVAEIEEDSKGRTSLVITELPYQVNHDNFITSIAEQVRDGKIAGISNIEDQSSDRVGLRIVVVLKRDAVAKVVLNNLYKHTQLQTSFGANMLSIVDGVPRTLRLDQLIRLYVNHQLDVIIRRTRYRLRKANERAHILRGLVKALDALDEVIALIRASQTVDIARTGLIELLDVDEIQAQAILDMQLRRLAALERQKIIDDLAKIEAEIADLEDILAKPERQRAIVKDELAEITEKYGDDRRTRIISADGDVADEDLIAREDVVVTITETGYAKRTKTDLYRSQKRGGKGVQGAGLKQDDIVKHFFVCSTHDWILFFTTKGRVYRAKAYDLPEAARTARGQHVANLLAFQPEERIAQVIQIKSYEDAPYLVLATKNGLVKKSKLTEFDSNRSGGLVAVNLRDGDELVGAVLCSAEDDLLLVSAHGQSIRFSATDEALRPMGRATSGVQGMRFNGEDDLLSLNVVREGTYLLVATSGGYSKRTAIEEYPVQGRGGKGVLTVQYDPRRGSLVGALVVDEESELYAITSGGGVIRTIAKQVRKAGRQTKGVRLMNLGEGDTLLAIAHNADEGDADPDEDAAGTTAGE
Chain of recombinant M. abscessus wild-type DNA gyrase (B1ME45 entry or part of it): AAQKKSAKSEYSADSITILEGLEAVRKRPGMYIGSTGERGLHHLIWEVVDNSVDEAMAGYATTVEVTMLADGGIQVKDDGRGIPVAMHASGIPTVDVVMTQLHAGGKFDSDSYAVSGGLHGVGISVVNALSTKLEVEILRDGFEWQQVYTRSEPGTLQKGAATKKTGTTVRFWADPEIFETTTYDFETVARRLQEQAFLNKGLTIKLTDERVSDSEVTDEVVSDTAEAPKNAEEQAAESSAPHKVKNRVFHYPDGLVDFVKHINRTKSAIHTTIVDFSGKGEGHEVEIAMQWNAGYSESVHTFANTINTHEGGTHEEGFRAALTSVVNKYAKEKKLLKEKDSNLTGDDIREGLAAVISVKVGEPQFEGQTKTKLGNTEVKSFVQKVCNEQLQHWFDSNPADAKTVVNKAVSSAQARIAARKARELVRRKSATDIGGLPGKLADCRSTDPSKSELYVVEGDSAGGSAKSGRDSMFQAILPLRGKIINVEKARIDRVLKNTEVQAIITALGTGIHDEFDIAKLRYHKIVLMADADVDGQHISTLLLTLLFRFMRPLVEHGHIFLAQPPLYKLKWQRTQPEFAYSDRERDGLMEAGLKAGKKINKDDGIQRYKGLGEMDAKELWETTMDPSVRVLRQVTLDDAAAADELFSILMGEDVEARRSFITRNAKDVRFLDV

[30] = test system: M. abscessus subsp. abscessus ATCC 19977 MXF^r-1 (GyrA D96Y); test: MIC, resistant mutant; assay type: cell-based, Mycobacterium abscessus; settings: Mycobacteroides abscessus, ATCC19977
[31] = test system: M. abscessus subsp. abscessus M404; design: method as in PMID 19171799; settings: abscessus M404, erm(41) C28; cited from earlier work
[32] = test system: M. abscessus subsp. abscessus M199; design: method as in PMID 19171799; settings: abscessus M199, erm(41) T28; cited from earlier work
[33] = test system: M. abscessus subsp. abscessus M421; design: method as in PMID 19171799; settings: abscessus M421, erm(41) T28; cited from earlier work
[34] = Mycobacteroides abscessus, 72 h
[35] = Mycobacteroides abscessus, ATCC19977, 72 h

CC[C@H]1OC(=O)[C@H](C)[C@@H](O[C@H]2C[C@@](C)(OC)[C@@H](O)[C@H](C)O2)[C@H](C)[C@@H](O[C@@H]2O[C@H](C)C[C@H](N(C)C)[C@H]2O)[C@](C)(OC)C[C@@H](C)C(=O)[C@H](C)[C@@H](O)[C@]1(C)O [CLR, clarithromycin]
CLR susceptibility [1]: Resistant | MIC [2, 34]: 0.4 µM (≈ 0.299 µg/mL) | MIC [3]: 0.2 µM (≈ 0.15 µg/mL) | MIC [4]: 3.2 µM (≈ 2.39 µg/mL) | MIC [5]: 0.6 µM (≈ 0.449 µg/mL) | MIC [6]: 3.2 µM (≈ 2.39 µg/mL) | MIC [7, 35]: 2 µM (≈ 1.5 µg/mL) | MIC [7]: 2 µM (≈ 1.5 µg/mL) | MIC [8]: 0.8 µM (≈ 0.598 µg/mL) | MIC [9]: 3.2 µM (≈ 2.39 µg/mL) | MIC [10]: 3.2 µM (≈ 2.39 µg/mL) | MIC [11]: 0.8 µM (≈ 0.598 µg/mL) | MIC [12]: 1.2 µM (≈ 0.898 µg/mL) | MIC [13]: 0.2 µM (≈ 0.15 µg/mL) | MIC [14]: 3.2 µM (≈ 2.39 µg/mL) | CLR susceptibility [15]: Sensitive | MIC [16]: 1 µM (≈ 0.748 µg/mL) | CLR susceptibility [17]: Sensitive | MIC [18]: 0.4 µM (≈ 0.299 µg/mL) | CLR susceptibility [19]: Resistant | MIC [20]: 0.3 µM (≈ 0.224 µg/mL) | CLR susceptibility [21]: Sensitive | CLR susceptibility [22]: Resistant | CLR susceptibility [23]: Sensitive | CLR susceptibility [24]: Resistant | MIC [25]: 2 µM (≈ 1.5 µg/mL) | MIC [26]: 1 µM (≈ 0.748 µg/mL) | CLR susceptibility [27]: Sensitive | CLR susceptibility [28]: Resistant | effect on supercoiling activity [29]: did not affect the activity of the enzyme | MIC [30]: 2 µM (≈ 1.5 µg/mL) | CLR susceptibility [31]: Sensitive | CLR susceptibility [32]: Resistant | CLR susceptibility [33]: Resistant

COc1c(N2C[C@@H]3CCCN[C@@H]3C2)c(F)cc2c(=O)c(C(=O)O)cn(C3CC3)c12 [MXF, moxifloxacin]
MIC [2, 34]: 4 µM (≈ 1.61 µg/mL) | MIC [2]: 4 µM (≈ 1.61 µg/mL) | MIC [3]: 3.2 µM (≈ 1.28 µg/mL) | MIC [4]: 1.5 µM (≈ 0.602 µg/mL) | MIC [5]: 3 µM (≈ 1.2 µg/mL) | MIC [6]: 2.5 µM (≈ 1 µg/mL) | MIC [7, 35]: 3 µM (≈ 1.2 µg/mL) | MIC [8]: 3 µM (≈ 1.2 µg/mL) | MIC [9]: 1.5 µM (≈ 0.602 µg/mL) | MIC [10]: 1.5 µM (≈ 0.602 µg/mL) | MIC [11]: 2.5 µM (≈ 1 µg/mL) | MIC [12]: 6.3 µM (≈ 2.53 µg/mL) | MIC [13]: 6.3 µM (≈ 2.53 µg/mL) | MIC [14]: 1.5 µM (≈ 0.602 µg/mL) | MIC [16]: 80 µM (≈ 32.1 µg/mL) | MIC [18]: 2 µM (≈ 0.803 µg/mL) | MIC [20]: 30 µM (≈ 12 µg/mL) | MIC [25]: 2 µM (≈ 0.803 µg/mL) | MIC [26]: 80 µM (≈ 32.1 µg/mL) | MIC [30]: 100 µM (≈ 40.1 µg/mL)
